The source of these data is patent US20190001106A1, “THERAPEUTIC DELIVERY DEVICE” (priority 2013, published 2019).

SMILES strings stand for the structures.

The nature of the series: preservation of doxorubicin efficacy in the implanted construct. The class given is in vivo. The conditions noted are these: in STID-Dox-PLGA85/15 construct, 3 weeks inside an animal body about 37C.

For `COc1cccc2c1C(=O)c1c(O)c3c(c(O)c1C2=O)C[C@@](O)(C(=O)CO)C[C@@H]3O[C@H]1C[C@H](N)[C@H](O)[C@H](C)O1` [doxorubicin, Doxorubicin], the “efficacy of doxorubicin after residence in the construct” value is recorded as “efficacy is still preserved”.
